Reference: PubChem BioAssay (NCI)
Several values for one entry are separate records, joined by “and”; a condition that tells them apart may be missing. Identical values can stand only once.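 Results reflect a 48-hour exposure of cells in 96-well plates to compound at five concentrations. GI50: concentration for 50% inhibition of growth. At the TGI there is no net growth.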

Experiments:
Experiment in all cases: inhibition of tumour cell growth, NCI panel, 48 h
CAKI-1 renal = system: CAKI-1 renal
MDA-MB-435 = system: MDA-MB-435
HCT-15 colon = system: HCT-15 colon
RXF 393 renal = system: RXF 393 renal
SR leukemia = system: SR leukemia
XF 498 CNS = system: XF 498 CNS
NCI-H226 lung = system: NCI-H226 lung
SF-295 CNS = system: SF-295 CNS
HCC-2998 colon = system: HCC-2998 colon
M19-MEL melanoma = system: M19-MEL melanoma
MDA-MB-231 breast = system: MDA-MB-231 breast
NCI-H460 lung = system: NCI-H460 lung
NCI-H522 lung = system: NCI-H522 lung
HOP-18 NSCLC = system: HOP-18 NSCLC
OVCAR-3 ovarian = system: OVCAR-3 ovarian
DLD-1 colon = system: DLD-1 colon
HS 578T breast = system: HS 578T breast
OVCAR-4 ovarian = system: OVCAR-4 ovarian
NCI-H23 lung = system: NCI-H23 lung
ACHN renal = system: ACHN renal
M14 melanoma = system: M14 melanoma
SNB-78 CNS = system: SNB-78 CNS
SK-MEL-5 melanoma = system: SK-MEL-5 melanoma
SN12C renal = system: SN12C renal
RXF-631 renal = system: RXF-631 renal
SF-268 CNS = system: SF-268 CNS
SK-MEL-2 melanoma = system: SK-MEL-2 melanoma
HL-60(TB) leukemia = system: HL-60(TB) leukemia
DMS 114 small cell lung = system: DMS 114 small cell lung
MDA-N = system: MDA-N
T-47D breast = system: T-47D breast
HCT-116 colon = system: HCT-116 colon
DU-145 prostate = system: DU-145 prostate
DMS 273 small cell lung = system: DMS 273 small cell lung
SW-620 colon = system: SW-620 colon
SNB-19 CNS = system: SNB-19 CNS
MALME-3M melanoma = system: MALME-3M melanoma
786-0 renal = system: 786-0 renal
EKVX NSCLC = system: EKVX NSCLC
SNB-75 CNS = system: SNB-75 CNS
LOX IMVI melanoma = system: LOX IMVI melanoma
OVCAR-8 ovarian = system: OVCAR-8 ovarian
CCRF-CEM leukemia = system: CCRF-CEM leukemia
HOP-62 NSCLC = system: HOP-62 NSCLC
KM12 colon = system: KM12 colon
A549 NSCLC = system: A549 NSCLC
U251 CNS = system: U251 CNS
KM20L2 colon = system: KM20L2 colon
PC-3 prostate = system: PC-3 prostate
NCI/ADR-RES ovarian = system: NCI/ADR-RES ovarian
SK-OV-3 ovarian = system: SK-OV-3 ovarian
MOLT-4 leukemia = system: MOLT-4 leukemia
UACC-62 melanoma = system: UACC-62 melanoma
COLO 205 colon = system: COLO 205 colon
K-562 leukemia = system: K-562 leukemia
RPMI-8226 leukemia = system: RPMI-8226 leukemia
MCF7 breast = system: MCF7 breast
UO-31 renal = system: UO-31 renal
SF-539 CNS = system: SF-539 CNS
A498 renal = system: A498 renal
HT29 colon = system: HT29 colon
OVCAR-5 ovarian = system: OVCAR-5 ovarian
IGROV1 ovarian = system: IGROV1 ovarian
UACC-257 melanoma = system: UACC-257 melanoma
SK-MEL-28 melanoma = system: SK-MEL-28 melanoma
TK-10 renal = system: TK-10 renal
LXFL 529 NSCLC = system: LXFL 529 NSCLC
HOP-92 NSCLC = system: HOP-92 NSCLC
BT-549 breast = system: BT-549 breast

CC(O)C(NC(=O)C(CS)NC(=O)C(CO)NC(=O)C(CCCCN)NC(=O)C(Cc1c[nH]c2ccccc12)NC(=O)C(Cc1ccc(O)cc1)NC(=O)C(CS)NC(=O)C(N)Cc1ccccc1)C(N)=O (centres undefined)
GI50 (CAKI-1 renal): 1.08 µM | TGI (CAKI-1 renal): > 25 µM and 29.6 µM | TGI (MDA-MB-435): > 25 µM | TGI (HCT-15 colon): > 25 µM and 56.2 µM | GI50 (RXF 393 renal): 14.5 µM | TGI (RXF 393 renal): > 25 µM and 36.6 µM | GI50 (SR leukemia): 29.7 µM | TGI (SR leukemia): > 25 µM and 86.5 µM | TGI (XF 498 CNS): 53.8 µM | TGI (NCI-H226 lung): > 25 µM | TGI (SF-295 CNS): > 25 µM | TGI (HCC-2998 colon): > 25 µM and 57.7 µM | TGI (M19-MEL melanoma): 70.9 µM | TGI (MDA-MB-231 breast): > 25 µM | TGI (NCI-H460 lung): > 25 µM and 53.8 µM | TGI (NCI-H522 lung): > 25 µM | TGI (HOP-18 NSCLC): 46.6 µM | GI50 (OVCAR-3 ovarian): 21.3 µM | TGI (OVCAR-3 ovarian): > 25 µM and 50 µM | TGI (DLD-1 colon): 59.7 µM | TGI (HS 578T breast): > 25 µM | GI50 (OVCAR-4 ovarian): 26.6 µM | TGI (OVCAR-4 ovarian): > 25 µM and 94.8 µM | TGI (NCI-H23 lung): > 25 µM and 68 µM | GI50 (ACHN renal): 20.5 µM | TGI (ACHN renal): > 25 µM and 44.5 µM | TGI (M14 melanoma): > 25 µM | TGI (SNB-78 CNS): 96 µM | TGI (SK-MEL-5 melanoma): > 25 µM | GI50 (SN12C renal): 28.6 µM | TGI (SN12C renal): > 25 µM and 84.2 µM | TGI (RXF-631 renal): 43.7 µM | TGI (SF-268 CNS): > 25 µM | GI50 (SK-MEL-2 melanoma): 22 µM | TGI (SK-MEL-2 melanoma): > 25 µM and 49.5 µM | GI50 (HL-60(TB) leukemia): 21.5 µM | TGI (HL-60(TB) leukemia): > 25 µM and 40.5 µM | TGI (DMS 114 small cell lung): 87.9 µM | TGI (MDA-N): > 25 µM | TGI (T-47D breast): > 25 µM | GI50 (HCT-116 colon): 32.9 µM | TGI (HCT-116 colon): > 100 µM | TGI (DU-145 prostate): > 25 µM | TGI (DMS 273 small cell lung): 49.4 µM | TGI (SW-620 colon): > 25 µM | TGI (SNB-19 CNS): 63.4 µM | TGI (MALME-3M melanoma): > 25 µM | TGI (786-0 renal): > 25 µM and 79 µM | GI50 (EKVX NSCLC): 36.1 µM | TGI (EKVX NSCLC): > 25 µM and 83.9 µM | TGI (SNB-75 CNS): 62.5 µM | TGI (LOX IMVI melanoma): > 25 µM | TGI (OVCAR-8 ovarian): > 25 µM and 81.5 µM | GI50 (CCRF-CEM leukemia): 19.7 µM | TGI (CCRF-CEM leukemia): > 25 µM and 43.3 µM | TGI (HOP-62 NSCLC): > 25 µM and 63.4 µM | TGI (KM12 colon): > 25 µM and 58 µM | GI50 (A549 NSCLC): 18.7 µM | TGI (A549 NSCLC): > 25 µM and 51.6 µM | TGI (U251 CNS): > 25 µM and 63.1 µM | TGI (KM20L2 colon): 55.8 µM | TGI (PC-3 prostate): > 25 µM | TGI (NCI/ADR-RES ovarian): > 25 µM | TGI (SK-OV-3 ovarian): > 25 µM | TGI (MOLT-4 leukemia): > 25 µM and 67.4 µM | TGI (UACC-62 melanoma): > 25 µM and 57.8 µM | GI50 (COLO 205 colon): 20.7 µM | TGI (COLO 205 colon): > 25 µM and 66.2 µM | GI50 (K-562 leukemia): 17.8 µM | TGI (K-562 leukemia): > 25 µM and 32.1 µM | GI50 (RPMI-8226 leukemia): 22.3 µM | TGI (RPMI-8226 leukemia): > 25 µM and 47.8 µM | TGI (MCF7 breast): > 25 µM | TGI (UO-31 renal): > 25 µM | TGI (SF-539 CNS): > 25 µM and 68.9 µM | TGI (A498 renal): > 25 µM and 61.7 µM | TGI (HT29 colon): > 25 µM and 61.4 µM | TGI (OVCAR-5 ovarian): > 25 µM | GI50 (IGROV1 ovarian): 20.2 µM | TGI (IGROV1 ovarian): > 25 µM and 44 µM | TGI (UACC-257 melanoma): > 25 µM and 65.9 µM | TGI (SK-MEL-28 melanoma): 76.9 µM

CC[C@@]1(OC(=O)CCC(=O)O)C(=O)OCc2c1cc1n(c2=O)Cc2cc3ccccc3nc2-1
TGI (CAKI-1 renal): 0.612 µM | TGI (MDA-MB-435): 3.22 µM | TGI (TK-10 renal): 57.5 µM | TGI (HCT-15 colon): 11.7 µM | TGI (RXF 393 renal): 1.53 µM | TGI (SR leukemia): 0.03 µM | TGI (LXFL 529 NSCLC): > 45.4 µM | TGI (XF 498 CNS): 5.38 µM | TGI (NCI-H226 lung): 3.13 µM | TGI (SF-295 CNS): 1.78 µM | TGI (HCC-2998 colon): 4.29 µM | TGI (M19-MEL melanoma): 1.69 µM | TGI (MDA-MB-231 breast): > 27.6 µM | TGI (NCI-H460 lung): 0.592 µM | TGI (NCI-H522 lung): 3.72 µM | TGI (HOP-18 NSCLC): > 100 µM | TGI (OVCAR-3 ovarian): 3.88 µM | TGI (DLD-1 colon): > 100 µM | TGI (HS 578T breast): > 100 µM | TGI (OVCAR-4 ovarian): 13.3 µM | TGI (NCI-H23 lung): 0.838 µM | TGI (ACHN renal): 0.424 µM | TGI (M14 melanoma): 1.41 µM | TGI (SNB-78 CNS): > 100 µM | TGI (SK-MEL-5 melanoma): 0.373 µM | TGI (SN12C renal): 4.22 µM | TGI (RXF-631 renal): 17.6 µM | TGI (SF-268 CNS): > 60.9 µM | TGI (SK-MEL-2 melanoma): 4.96 µM | TGI (HL-60(TB) leukemia): 0.449 µM | TGI (DMS 114 small cell lung): 1.08 µM | TGI (MDA-N): 5.51 µM | TGI (T-47D breast): 2.62 µM | TGI (HOP-92 NSCLC): 6.08 µM | TGI (DU-145 prostate): 1.51 µM | TGI (DMS 273 small cell lung): 0.676 µM | TGI (SW-620 colon): 16.8 µM | TGI (SNB-19 CNS): > 43 µM | TGI (MALME-3M melanoma): 6.78 µM | TGI (786-0 renal): 0.394 µM | TGI (EKVX NSCLC): > 100 µM | TGI (SNB-75 CNS): 2.54 µM | TGI (LOX IMVI melanoma): 0.596 µM | TGI (OVCAR-8 ovarian): 9.38 µM | TGI (BT-549 breast): > 28.3 µM | TGI (CCRF-CEM leukemia): 0.127 µM | TGI (HOP-62 NSCLC): 0.181 µM | TGI (KM12 colon): 3.2 µM | TGI (A549 NSCLC): 5.54 µM | TGI (U251 CNS): 2.18 µM | TGI (KM20L2 colon): 33.8 µM | TGI (PC-3 prostate): > 100 µM | TGI (NCI/ADR-RES ovarian): 0.791 µM | TGI (SK-OV-3 ovarian): 14.2 µM | TGI (MOLT-4 leukemia): 0.163 µM | TGI (UACC-62 melanoma): 0.255 µM | TGI (COLO 205 colon): 8.49 µM | TGI (K-562 leukemia): > 61.8 µM | TGI (RPMI-8226 leukemia): 3.87 µM | TGI (UO-31 renal): 0.493 µM | TGI (SF-539 CNS): 0.238 µM | TGI (A498 renal): 1.27 µM | TGI (HT29 colon): > 33.6 µM | TGI (OVCAR-5 ovarian): 11.9 µM | TGI (IGROV1 ovarian): 5.98 µM | TGI (UACC-257 melanoma): 2.09 µM | TGI (SK-MEL-28 melanoma): > 46.1 µM
